Assay results taken from PubChem BioAssay (NCI).
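Test compounds were applied to cells in 96-well plates for 48 hours at 5 doses. TGI denotes the concentration required for complete inhibition of growth.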

Tests used:
Assay in all cases: NCI tumour cell line growth inhibition, 48 h
[1] = test system: MCF7 breast
[2] = test system: PC-3 prostate
[3] = test system: OVCAR-8 ovarian
[4] = test system: MDA-MB-435
[5] = test system: SK-OV-3 ovarian
[6] = test system: KM12 colon
[7] = test system: IGROV1 ovarian
[8] = test system: SK-MEL-2 melanoma
[9] = test system: HCT-15 colon
[10] = test system: T-47D breast
[11] = test system: K-562 leukemia
[12] = test system: MOLT-4 leukemia
[13] = test system: SK-MEL-28 melanoma
[14] = test system: MDA-N
[15] = test system: UO-31 renal
[16] = test system: NCI-H460 lung
[17] = test system: NCI/ADR-RES ovarian
[18] = test system: SR leukemia

Row | SMILES | TGI [1] [µM] | TGI [2] [µM] | TGI [3] [µM] | TGI [4] [µM] | TGI [5] [µM] | TGI [6] [µM] | TGI [7] [µM] | TGI [8] [µM] | TGI [9] [µM] | TGI [10] [µM] | TGI [11] [µM] | TGI [12] [µM] | TGI [13] [µM] | TGI [14] [µM] | TGI [15] [µM] | TGI [16] [µM] | TGI [17] [µM] | TGI [18] [µM]
1 | N=C(N)C(N=Nc1ccccc1)C(N)=O (stereo not given) | > 100 | > 100 | > 100 | > 100 | > 100 | > 100 | > 100 | > 100 | > 100 | > 100 | > 100 | > 100 | > 100 | > 100 | > 100 | > 100 | > 100 | 
2 | Cc1cc(OCc2nn(CN3CCN(C)CC3)c(=S)n2/N=C/c2ccc(-c3ccc(Cl)cc3Cl)o2)ccc1Cl | > 100 | > 100 | > 100 | > 100 | > 100 | 47.6 | > 100 | > 100 | > 100 | > 100 | > 100 | > 100 | > 100 | > 100 | > 100 | > 100 | > 100 | 
3 | Nc1ccc2nc3ccc(N)cc3[n+](-c3ccccc3)c2c1 | > 100 | > 100 |  | > 100 | > 100 | > 100 | > 100 | > 100 | > 100 | > 100 | > 100 |  | > 100 | > 100 | > 100 | > 100 | > 100 | > 100
4 | Cc1nn(C(=O)c2ccncc2)c2c1C(c1ccc(Cl)cc1)SC(N)=N2 (stereo not given) | > 10 | > 10 | > 10 | > 10 |  | > 10 | > 10 | > 10 | > 10 | > 10 | > 10 | > 10 | > 10 | > 10 |  | > 10 | > 10 | > 10
5 | CCOP(=O)(OCC)C(Nc1cccc([N+](=O)[O-])c1)c1ccccc1 (stereo not given) | > 100 | > 100 |  | > 100 | > 100 | > 100 | 25.5 | > 100 | > 100 | 62.1 | > 100 | > 100 | > 100 | > 100 | > 100 | > 100 | > 100 | > 100
6 | C=C1CCC2CC1[C@@H](C(=O)c1c[nH]c3ccccc13)NC2(C)C (stereo not given in full) | > 37.5 | > 37.5 | > 37.5 | > 37.5 |  | > 37.5 | > 37.5 | > 37.5 | > 37.5 | > 37.5 | > 37.5 | > 37.5 | > 37.5 | > 37.5 | > 37.5 | > 37.5 | > 37.5 | > 37.5
7 | CN(C)CCCNc1ncnc2nc[nH]c12 | > 100 | > 100 | > 100 | > 100 | > 100 | > 100 | > 100 | > 100 | > 100 | > 100 | > 100 | > 100 | > 100 | > 100 | > 100 | > 100 | > 100 | 
8 | C=CCOc1ccc(/C(N=Nc2ccccc2)=N/NC(=O)c2ccccc2)cc1OC | > 100 | > 100 | > 100 | > 100 |  | > 100 | > 100 | > 100 | > 100 | > 100 |  | > 100 | > 100 | > 100 | > 100 | > 100 | > 100 | > 100
9 | Cc1cccc2c(=O)c3c(O)cc(O)cc3[nH]c12 | > 10 | > 10 | > 10 | > 10 | > 10 | > 10 | > 10 | > 10 | > 10 | > 10 | > 10 | > 10 | > 10 | > 10 | > 10 | > 10 | > 10 | 
10 | Cc1nc(-n2[nH]c(C)c(CCO)c2=O)[nH]c(=O)c1CCO | > 100 | > 100 | > 100 | > 100 | > 100 | > 100 | > 100 |  | > 100 | > 100 | > 100 | > 100 | > 100 | > 100 | > 100 | > 100 | > 100 | > 100
11 | CCO[C@@H]1CCC(S(=O)c2ccc(C)cc2)=CO1 (stereo not given in full) | > 100 | > 100 | > 100 | > 100 |  | > 100 | > 100 | > 100 | > 100 | > 100 | > 100 | > 100 | > 100 | > 100 | > 100 | > 100 | > 100 | > 100
12 | N#CCCSC1SC(=C2SC3=C(SCCS3)S2)SC1SCCC#N (stereo not given) | > 100 | > 100 | > 100 | > 100 |  |  | > 100 | > 100 | > 100 | > 100 | > 100 | > 100 | > 100 | > 100 | > 100 | > 100 | > 100 | > 100
13 | Cc1cnc(/N=c2\sc(C)cn2-c2ncc(C)s2)s1 | > 100 | > 100 | > 100 | > 100 | > 100 | > 100 | > 100 |  | > 100 | > 100 | > 100 | > 100 | > 100 | > 100 | > 100 | > 100 | > 100 | > 100
14 | O=C(c1ccco1)n1c2ccc(Br)cc2c2nc3ccccc3nc21 | > 100 | > 100 | > 100 | > 100 |  | 97.6 | > 100 | > 100 | > 100 | > 100 | > 100 | > 100 | > 100 | > 100 | > 100 | > 100 | > 100 | > 100
15 | c1ccc(-c2ccc(-c3cc4ccccc4[nH]3)cc2)cc1 | > 100 | > 100 | > 100 | > 100 | > 100 | > 100 | > 100 | > 100 | > 100 | > 100 |  | > 100 | > 100 | > 100 | > 100 | > 100 | > 100 | > 100
16 | COC(=O)C1CC=C(SC(=O)c2ccccc2)N1C(=O)c1ccccc1 (stereo not given) | > 100 | > 100 | > 100 | > 100 | > 100 | > 100 | > 100 | > 100 | > 100 | > 100 | > 100 | > 100 | > 100 | > 100 | > 100 | > 100 | > 100 | 
17 | CC(O)(/C=C/c1ccccc1)P(=O)(O)c1ccccc1 (stereo not given) | > 100 | > 100 | > 100 | > 100 | > 100 | > 100 | > 100 | > 100 | > 100 | > 100 | > 100 |  | > 100 | > 100 |  | > 100 | > 100 | > 100
18 | C=C[C@H]1CC[C@H]2[C@@H]3CC=C4C[C@@H](OC5OCC(O)C(O)C5O)CC[C@]4(C)[C@H]3CC[C@]12C (stereo not given in full) | > 100 | 37.7 | 33.5 | 47.8 | 28.5 | 31.8 | 45.2 | 34.5 | > 100 | 55.3 | > 100 | > 100 |  | 65.8 | 30 | 28.4 | 38.1 | 33.7
19 | CCN1CN(c2ccccc2)C2(CCN(CCCSc3ccc(F)cc3)CC2)C1=O | 12.2 | 28.1 | 30.5 | 27.3 | 33.2 | 28.9 | 19.7 |  | 24.9 | 17.2 | 37.1 | 23.7 | 31 | 26.4 | 18.1 |  | 28.2 | 36.5
20 | Cc1ccccc1NC(=O)C(=O)CC(=O)c1sc(Nc2ccccc2[N+](=O)[O-])nc1C | 70.3 | > 100 | > 100 | > 100 | 58.7 | > 100 | > 100 | > 100 | > 100 | 68.1 | > 100 | > 100 | 82.8 | > 100 | 32.4 | > 100 | > 100 | 
21 | CC(=O)O[C@@H]1[C@H]2[C@@H](OC(=O)c3ccccc3)[C@@H](C)C[C@]2(O)[C@H](OC(C)=O)[C@@]2(C)[C@@H]3CC(C)(C)C(=O)[C@]3(OC(C)=O)C[C@@]12C | > 25 | > 25 | > 25 | > 25 | > 25 | > 25 | > 25 | > 25 | > 25 | > 25 |  | > 25 |  | > 25 | > 25 | > 25 | > 25 | > 25
